How the values were obtained:
rat thymocytes = assay: Apoptosis in rat thymocytes (annexin V-FITC/propidium iodide flow cytometry); type: cell-based; conditions: early + late apoptosis
Experimental: On this basis, the antiglucocorticoid properties of the compounds of the present invention may be determined by examining the decrease/increase of apoptosis in rat thymocytes after treatment with a given test compounds. Regulation of apoptosis was analyzed by flow cytometry. The method consists of quantifying fluorometrically the apoptotic cells in the sample. In normal viable cells phosphatidyl serine (PS) is located on the cytoplasmic surface of the cell membrane. Upon induction of apoptosis, rapid alteration in the organization of phospholipids in most cell types occurs leading to exposure of PS on the cell surface. In vitro detection of externalized PS may be achieved through interaction with the anticoagulant annexin V. In the presence of calcium, rapid high affinity binding of annexin V to PS occurs. PS translocation to the cell surface precedes nuclear breakdown, DNA fragmentation and the appearance of most apoptosis-associated molecules making annexin V binding a marker of early-stage apoptosis. In the assay used, a fluorescein isothiocyanate (FITC) conjugate of annexin V is used allowing detection of apoptosis by flow cytometry. Since membrane permeabilization is observed in necrosis, necrotic cells will also bind annexin V-FITC. Propidium iodide is used to distinguish between viable and early apoptotic cells thus the latter will be labeled only with FITC while late apoptotic cells will be labeled with FITC and propidium iodide. An annexin V-FITC apoptosis detection kit from Oncogen Research Products (cat. No. PF032) was used following the RAPID protocol recommended by the manufacturer. Briefly, after incubation with various compounds (see below), cells were centrifuged at 2000 rpm for 5 min, the media removed and cell pellets washed with phosphate buffered saline (PBS): Cells were resuspended in the binding buffer to a density of 1×10^6 cells/ml. Binding reagent (10 μl) and annexin V/FITC (1.25 μl) were added and cells incubated for 15 min at room temperature in the dark. The cells were centrifuged and to the pellet were added binding buffer (0.5 ml) and propidium iodide (10 μl). Samples were analyzed by flow cytometry in a Cytoron Absolute cytometer (Ortho Diagnostic Systems). […] The cytograms obtained are presented in FIGS. 3a-3f, where GR-FL represents fluorescence from FITC and RD-FL represents fluorescence from propidium iodide. […] Early apoptotic cells with exposed PS but intact cell membranes appear in the […] quadrant. Necrotic or late apoptotic cells appear in the upper right quadrant. A small percentage of normal cell death may also occur, none is observed in this case.

glucocorticoid receptor = molecular target: T1, glucocorticoid receptor (Homo sapiens, UniProt P04150); assay: Reporter gene assay pMMTV-Luc expression in Cos-1 line; type: cell-based; conditions: test compound 10^−6 M with dexamethasone; Cos-1 cells transfected with pMMTV-Luc and pRSV-GR
T1 construct: expressed in transfected cells; host or cells: Cos-1
T1 sequence (P04150 1-777): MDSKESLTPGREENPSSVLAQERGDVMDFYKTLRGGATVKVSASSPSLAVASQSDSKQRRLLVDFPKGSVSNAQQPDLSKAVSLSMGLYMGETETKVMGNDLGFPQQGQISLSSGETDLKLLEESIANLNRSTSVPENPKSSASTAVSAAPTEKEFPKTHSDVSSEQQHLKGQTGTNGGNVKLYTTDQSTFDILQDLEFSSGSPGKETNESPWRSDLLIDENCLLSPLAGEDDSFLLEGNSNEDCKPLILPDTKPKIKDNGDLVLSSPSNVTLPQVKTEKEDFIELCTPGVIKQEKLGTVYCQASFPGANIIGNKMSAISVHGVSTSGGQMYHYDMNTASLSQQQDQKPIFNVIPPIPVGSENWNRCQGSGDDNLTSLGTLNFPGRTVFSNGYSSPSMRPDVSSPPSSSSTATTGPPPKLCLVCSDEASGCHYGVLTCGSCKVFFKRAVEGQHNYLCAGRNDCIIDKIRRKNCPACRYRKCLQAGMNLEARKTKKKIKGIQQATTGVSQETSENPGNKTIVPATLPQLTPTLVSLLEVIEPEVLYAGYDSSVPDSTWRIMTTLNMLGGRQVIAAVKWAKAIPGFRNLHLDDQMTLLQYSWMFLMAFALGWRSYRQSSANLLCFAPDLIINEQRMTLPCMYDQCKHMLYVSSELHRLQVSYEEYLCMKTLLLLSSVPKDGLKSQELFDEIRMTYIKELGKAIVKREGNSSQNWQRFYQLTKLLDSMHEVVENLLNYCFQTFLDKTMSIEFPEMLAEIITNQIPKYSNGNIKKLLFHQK
Experimental: vol. 7 No. 10 (1989). The assay may discriminate between gluco/antigluco- and progestin/antiprogestin-effects of the test compounds. Cells were grown on 100 mm plates with 8 ml D-MEM (Dubecco's modified Eagle's medium Gibco BRL), supplemented with 10% bovine fetal serum (Bioser), 3,7 g/l sodium bicarbonate and 100 IU/penicilin G, 100 μg/ml streptomycin, 0,25 μg amphotericin B in an atmosphere in an of 5% CO2 at 37° C. Cells were treated with 0,25% trypsin, 1 mM EDTA and were plated at a density of 5×10^5 cells/plate, in 60 mm plates. Cos-1 cells were transfected with a construct encoding the glucocorticoid receptor, and a construct with the luciferase gene under the MMTV promoter. Cells were transfected by precipitation with calcium phosphate adding 25 μl of a 2M CaCl2 solution to a solution containing 3 pmoles of vectors pMMTV-Luc and pRSV-GR encoding luciferase and the glucocorticoid receptor, respectively. […]
The transfection mixture was added dropwise to an equal volume of transfection buffer 2×BBS, containing phosphate. […] From the supernatant the luciferase activity was determined. […] Luciferase expression was assayed employing a Promega kit in partial obscurity and measured with a Junior luminometer (EG&G Berthold, Germany).
β Galactosidase was determined by hydrolysis of a phenyl galactoside. […]

uterus-PR = molecular target: T2, uterus-PR (Homo sapiens, UniProt P06401); conditions: cited from earlier work
T2 construct: host or cells: uterus
T2 sequence (P06401 1-933): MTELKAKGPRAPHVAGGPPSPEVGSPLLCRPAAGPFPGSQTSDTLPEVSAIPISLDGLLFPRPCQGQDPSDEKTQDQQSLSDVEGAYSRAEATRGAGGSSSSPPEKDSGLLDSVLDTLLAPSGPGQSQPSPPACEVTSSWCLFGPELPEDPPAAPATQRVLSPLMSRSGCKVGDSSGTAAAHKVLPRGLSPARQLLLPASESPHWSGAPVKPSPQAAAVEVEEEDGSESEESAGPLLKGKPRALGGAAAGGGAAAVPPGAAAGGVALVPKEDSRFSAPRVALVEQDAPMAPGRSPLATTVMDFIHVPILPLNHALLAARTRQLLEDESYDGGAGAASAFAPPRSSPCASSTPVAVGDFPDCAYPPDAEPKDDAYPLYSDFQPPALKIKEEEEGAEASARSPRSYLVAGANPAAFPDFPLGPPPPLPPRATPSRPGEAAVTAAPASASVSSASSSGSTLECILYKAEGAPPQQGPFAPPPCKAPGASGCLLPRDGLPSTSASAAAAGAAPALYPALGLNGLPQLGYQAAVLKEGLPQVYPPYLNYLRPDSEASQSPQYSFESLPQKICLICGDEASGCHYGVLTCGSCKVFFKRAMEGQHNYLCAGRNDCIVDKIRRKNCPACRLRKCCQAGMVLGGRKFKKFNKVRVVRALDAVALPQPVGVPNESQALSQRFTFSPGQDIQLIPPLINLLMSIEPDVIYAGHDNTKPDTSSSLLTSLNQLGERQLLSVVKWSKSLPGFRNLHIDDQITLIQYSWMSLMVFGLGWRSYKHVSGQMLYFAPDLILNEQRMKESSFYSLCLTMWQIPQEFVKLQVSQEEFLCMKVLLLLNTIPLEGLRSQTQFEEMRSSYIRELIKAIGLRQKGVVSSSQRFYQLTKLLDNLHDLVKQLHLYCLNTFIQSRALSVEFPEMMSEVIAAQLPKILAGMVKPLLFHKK

kidney-MR = molecular target: T3, kidney-MR (Homo sapiens, UniProt P08235); conditions: cited from earlier work
T3 construct: host or cells: kidney
T3 sequence (P08235 1-984): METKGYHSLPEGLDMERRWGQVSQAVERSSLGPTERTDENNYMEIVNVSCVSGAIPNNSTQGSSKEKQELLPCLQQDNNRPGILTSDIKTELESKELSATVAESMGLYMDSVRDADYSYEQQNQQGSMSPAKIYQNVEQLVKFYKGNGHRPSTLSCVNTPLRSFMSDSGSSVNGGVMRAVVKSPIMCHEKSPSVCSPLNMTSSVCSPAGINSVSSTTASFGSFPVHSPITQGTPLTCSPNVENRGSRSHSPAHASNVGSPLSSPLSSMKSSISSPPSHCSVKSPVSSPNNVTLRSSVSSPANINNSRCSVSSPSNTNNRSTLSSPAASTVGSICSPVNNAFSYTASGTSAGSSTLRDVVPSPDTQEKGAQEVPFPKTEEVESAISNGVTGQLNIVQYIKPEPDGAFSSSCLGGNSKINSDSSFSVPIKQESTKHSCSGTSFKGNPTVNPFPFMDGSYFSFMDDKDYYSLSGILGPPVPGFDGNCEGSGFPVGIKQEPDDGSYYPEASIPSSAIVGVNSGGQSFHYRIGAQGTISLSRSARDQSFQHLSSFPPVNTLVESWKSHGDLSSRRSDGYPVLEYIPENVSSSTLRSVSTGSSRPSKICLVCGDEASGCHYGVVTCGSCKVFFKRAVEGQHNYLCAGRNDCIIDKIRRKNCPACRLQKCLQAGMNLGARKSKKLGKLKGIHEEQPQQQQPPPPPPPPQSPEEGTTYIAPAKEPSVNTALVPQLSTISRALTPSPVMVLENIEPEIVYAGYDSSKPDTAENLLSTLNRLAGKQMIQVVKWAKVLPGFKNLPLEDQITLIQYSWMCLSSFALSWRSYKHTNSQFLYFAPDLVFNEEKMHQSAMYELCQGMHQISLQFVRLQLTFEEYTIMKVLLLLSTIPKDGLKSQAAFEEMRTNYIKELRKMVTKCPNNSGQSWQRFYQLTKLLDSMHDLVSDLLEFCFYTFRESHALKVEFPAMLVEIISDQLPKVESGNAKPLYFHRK

[1] = Dexamethasone 10^−8 M + test compound 10^−5 M, 4 h at 37° C.

**Q.** For `C[C@]12CCC3C(C[C@@H]4C5=CC(=O)CC[C@@]53CS4(=O)=O)C1CCC2C(=O)CO` (stereo partly drawn) [Compound 5, 21-Hydroxy-6,19-sulfone-4-pregnene-3,20-dione], which “% total apoptosis” value (rat thymocytes; [1]) is on record?
**A.** 31.40%

**Q.** With `CC#C[C@]1(O)CC[C@H]2[C@@H]3CCC4=CC(=O)CCC4=C3[C@@H](c3ccc(N(C)C)cc3)C[C@@]21C` [RU-486, 11-(4-Dimethylamino-phenyl)-17-hydroxy-13-methyl-17-prop-1-ynyl-1,2,6,7,8,11,12,13,14,15,16,17-dodecahydro-cyclopenta[α]phenanthren-3-one] as the compound, how does the “% total apoptosis” value (rat thymocytes; Dexamethasone 10^−8 M + reference compound 10^−6 M, 4 h at 37° C.) read?
**A.** 35.50%

**Q.** With `C[C@@H]1C[C@H]2[C@@H]3CCC4=CC(=O)C=C[C@]4(C)[C@@]3(F)[C@@H](O)C[C@]2(C)[C@@]1(O)C(=O)CO` [Dexamethasone] as the compound, how does the “% total apoptosis” value (rat thymocytes; Dexamethasone 10^−8 M alone, thymocytes 4 h at 37° C.) read?
**A.** 40.40%

**Q.** With `C[C@]12CCC3C(C[C@@H]4C5=CC(=O)CC[C@@]53C[S+]4[O-])C1CCC2C(=O)CO` (stereo partly drawn) [Compound 4, 21-Hydroxy-6,19-sulfoxy-4-pregnene-3,20-dione] as the compound, how does the “% total apoptosis” value (rat thymocytes; [1]) read?
**A.** 34.60%

**Q.** And the “reduction of the luciferase/β galactosidase ratio” value (glucocorticoid receptor)?
**A.** about 65%

**Q.** Which “% total apoptosis” value (rat thymocytes; [1]) does the source give for `C[C@]12CCC3C(C[C@H]4OC[C@@]35CCC(=O)C=C45)C1CCC2C(=O)CO` (stereo partly drawn) [Compound 21OH-6OP, 21-hydroxy-6,19-oxidoprogesterone] here?
**A.** 38.10%

**Q.** What about the “cross-reaction with uterus-PR” value (uterus-PR) of the same compound?
**A.** does not substantially cross-react

**Q.** And the “cross-reaction with kidney-MR” value (kidney-MR)?
**A.** does not substantially cross-react

**Q.** For `C[C@]12CCC3C(C[C@H]4SC[C@@]35CCC(=O)C=C45)C1CCC2C(=O)CO` (stereo partly drawn) [Compound 3, 21-Hydroxy-6,19-sulfanyl-4-pregnene-3,20-dione], which “% total apoptosis” value (rat thymocytes; [1]) is on record?
**A.** 37.50%
